The values that follow come from article PMC6152277, “Synthesis and Evaluation of New Quinoxaline Derivatives of Dehydroabietic Acid as Potential Antitumor Agents” (Molecules : A Journal of Synthetic Chemistry and Natural …, 2017).

One may read the IC50 as the midpoint of a concentration-inhibition curve. Read a high IC50 as weaker potency.

For series [1], the system named is human cervical carcinoma cell line (HeLa). In words: MTT cytotoxic assay, HeLa. It counts as cell-based. To be noted: 48 h exposure. On the procedure:
(§1) All the compounds (1–3, 4a–o) were evaluated for their in vitro cytotoxic activity against three cancer cell lines including human breast cancer cell line (MCF-7), human hepatocarcinoma cell line (SMMC-7721), human cervical carcinoma cell line (HeLa), and a noncancerous human hepatocyte cell line (LO2) using the MTT assay method. An anticancer drug etoposide (VP-16) was co-assayed as the positive control. The results of the test compounds shown as IC50 values (concentration required to inhibit tumor cell proliferation by 50%), are listed in Table 1.
(§2) The in vitro cytotoxic activities of the quinoxaline derivatives of DAA were evaluated against a human breast cancer cell line (MCF-7), human hepatocarcinoma cell line (SMMC-7721), human cervical carcinoma cell line (HeLa) and noncancerous human hepatocyte cells (LO2) via the MTT colorimetric method. Briefly, different tumor cells were grown in DMEM supplemented with 10% fetal bovine serum, penicillin (100 U/mL), and streptomycin (50 μg/mL). Cells were harvested at the log phase of growth and seeded in 96-well plates (100 μL/well at a density of 2 × 10^5 cells/mL). After 24 h of incubation at 37 °C and 5% CO2 to allow for cell attachment, cultures were exposed to various concentrations of the isolated compounds for 48 h. Finally, the MTT solution (2.5 mg/mL in PBS) was added (40 μL/well). Plates were further incubated for 4 h at 37 °C, and the formazan crystals formed were dissolved by adding 150 μL/well of DMSO. Absorption at 570 nm was measured with an ELISA plate reader. The results were expressed as IC50 values with standard deviations, which were defined as the concentrations at which a 50% survival of the cells was discerned. Etoposide (VP-16) was co-assayed as the positive control.
For orientation: Formazan colour is commonly taken as a measure of viable cells.

Series [2] has as its system SMMC-7721 cells. Put plainly: Hoechst 33258 staining assay. Format: cell-based, human. To be noted: SMMC-7721, 0.2, 1.0 and 5.0 μM, 24 h. On the procedure:
To investigate the morphological changes induced by compound 4b in SMMC-7721 cells, Hoechst staining was carried out. Hoechst 33258 is a cell membrane permeable dye, which stains the live cells’ nuclei uniformly as light-blue and apoptotic cells’ nuclei as round and bright-blue, on account of karyopyknosis and chromatin condensation. SMMC-7721 cells were treated with various concentrations (0, 0.2, 1.0 and 5.0 μM) of compound 4b for 24 h, and stained with Hoechst 33258.
Cells grown on a sterile cover slip in six-well plates were treated with different concentrations of the test compound for 24 h. The culture medium containing compounds was removed, and the cells were fixed in 4% paraformaldehyde for 10 min. After being washed twice with PBS, the cells were stained with 0.5 mL of Hoechst 33258 (Beyotime, Haimen, China) for 5 min, and then again washed twice with PBS. The stained nuclei were observed under a Nikon ECLIPSETE2000-S fluorescence microscope using 350 nm for excitation and 460 nm for emission.

Series [3] has as its system SMMC-7721 cells. Put plainly: Cell cycle analysis (PI staining, flow cytometry). It counts as cell-based, human. Here is the method:
Subsequently, to determine the possible role of the cell cycle arrest in cell growth inhibition induced by target compounds, SMMC-7721 cells were treated with different concentrations of compound 4b. The cell cycle distribution was investigated by flow cytometric analysis after staining of DNA with propidium iodide (PI).
SMMC-7721 cells were treated with indicated concentrations of compound 4b. After incubation for 48 h, the cells were washed twice with ice-cold PBS, fixed and permeabilized with ice-cold 70% ethanol at −20 °C overnight. The cells were treated with 100 μg/mL RNase A at 37 °C for 30 min after being washed with ice-cold PBS, and finally stained with 400 μL of 1 mg/mL PI in the dark at 4 °C for 30 min. The samples were then analyzed for their DNA content by flow cytometry (Becton-Dickinson FACSCalibur, New York, NY, USA).
(In flow cytometry, cells or beads pass a laser one at a time.)

The subject of series [4] is noncancerous human hepatocyte cells (LO2). In words: MTT cytotoxic assay, LO2. It counts as cell-based. To be noted: 48 h exposure, noncancerous hepatocytes. Here is the method: as §1, §2
The test system of series [5] is human hepatocarcinoma cell line (SMMC-7721). In words: MTT cytotoxic assay, SMMC-7721. It counts as cell-based. To be noted: 48 h exposure. On the procedure: as §1, §2
Series [6] concerns SMMC-7721 cells. In words: Annexin V-FITC/PI dual staining assay. Format: cell-based, human. The text has this:
The apoptotic effect of compound 4b was further evaluated by a Annexin V-FITC/propidium iodide (AV/PI) dual staining assay to examine the occurrence of phosphatidylserine externalization, which facilitated the detection of live cells (lower left quadrant; AV−/PI−), early apoptotic cells (lower right quadrant; AV+/PI−), late apoptotic cells (upper right quadrant; AV+/PI+) and necrotic cells (upper left quadrant; AV−/PI+).
Apoptosis was discriminated with the Annexin V-FITC/PI dual staining assay. SMMC-7721 cells were seeded at 1 × 10^5 cells per well in 10% fetal calf serum (FBS)-DMEM into six-well plates, and treated with compound 4b for 24 h. The cells were washed twice with cold PBS and then resuspended in 1 × binding buffer (0.1 M Hepes/NaOH (pH 7.4), 1.4 M NaCl, 25 mM CaCl2) at a concentration of 1 × 10^6 cells/mL. The solution (100 μL) was transferred to 5 mL culture tubes, and 5 μL of Annexin V-FITC (BD, Pharmingen) and 5 μL of PI were added to each tube. The cells were gently vortexed, and incubated for 30 min at 25 °C in the dark. PBS (200 μL) was added to each tube. The analysis was performed on a flow cytometry (Becton-Dickinson FACSCalibur, New York, NY, USA).

The subject of series [7] is human breast cancer cell line (MCF-7). In words: MTT cytotoxic assay, MCF-7. It counts as cell-based. As to conditions: MCF7, 48 h exposure. On the procedure:
as §1, §2

Series [8] concerns three cancer cell lines (MCF-7, SMMC-7721, HeLa). In words: MTT cytotoxic assay, summary statements over the three cancer cell lines. Format: cell-based, human. On the procedure:
as §1, §2

Take `CCN(CC)Cc1nc2c(Br)cc3c(c2nc1CN(CC)CC)CCC1[C@](C)(C(=O)OC)CCC[C@]31C` (some centres unmarked) [Compound 4b, Methyl 12-bromo-2′,3′-bis((diethylamino)methyl)-13,14-pyrazinyldeisopropyl-dehydroabietate]: the IC50 in series [1] came to 1.08 ± 0.12 µM; in series [4], 11.1 ± 0.57 µM; in series [5] it was 0.72 ± 0.09 µM; in series [7] it was 1.78 ± 0.36 µM. Further, the “nuclear morphological changes / apoptosis (Hoechst 33258)” value in series [2] is “induce apoptosis of SMMC-7721 cells in a dose-dependent manner”. In addition, the cell cycle arrest entry in series [3] (SMMC-7721, 1.0-10.0 μM, 48 h) is given as “arrest SMMC-7721 cells in the G0/G1 stage”. The same compound gave a G2/M phase cells in series [3] (SMMC-7721, 48 h, end of the range 0-10.0 μM (control 10.42 ± 0.68%)) of 18.13 ± 0.13%. The S phase cells in series [3] (SMMC-7721, 48 h, end of the range 0-10.0 μM (control 32.24 ± 0.21%)) was found to be 8.54 ± 0.57%. The compound also yielded a G0/G1 phase cells in series [3] (SMMC-7721, 48 h, end of the range 0-10.0 μM (control 57.34 ± 0.48%)) of 73.33 ± 0.69%. Besides, in series [6] (SMMC-7721, 5.0 μM, 24 h (control 2.84 ± 0.26%)), the “percentage of early apoptotic cells (AV+/PI−)” value is listed as 17.44 ± 0.68%. The “percentage of late apoptotic cells (AV+/PI+)” value in series [6] (SMMC-7721, 5.0 μM, 24 h (control 7.45 ± 0.42%)) was found to be 52.36 ± 1.23%. Besides, the “apoptotic cells (early + late)” value in series [6] (SMMC-7721, 5.0 μM, 24 h (control 10.29%)) is 69.80%. For the same compound, the “induction of apoptosis (Annexin V-FITC/PI)” value in series [6] (SMMC-7721, 24 h) was “induce the apoptosis of SMMC-7721 cells in a dose-dependent manner”.
For the compound `COC(=O)[C@]1(C)CCC[C@]2(C)c3cc(Br)c(N)c(N)c3CCC12` (some centres unmarked) [Compound 2], the IC50 in series [1] is 43.3 ± 3.26 µM; in series [4] it was more than 50 µM; in series [5], more than 50 µM; in series [7], more than 50 µM. For the same compound, the “cytotoxicity to HeLa and/or SMMC-7721 cell lines (in words)” value in series [8] (HeLa and/or SMMC-7721) was “mild cytotoxicity”.
`COC(=O)[C@]1(C)CCC[C@]2(C)c3cc(Br)c4nc(CN5CCCC5)c(CN5CCCC5)nc4c3CCC12` (some centres unmarked) [Compound 4e, Methyl 12-bromo-2′,3′-bis(pyrrolidin-1-ylmethyl)-13,14-pyrazinyldeisopropyl-dehydroabietate]: the IC50 in series [1] was 12.8 ± 1.26 µM; in series [4], more than 50 µM; in series [5], 18.6 ± 2.37 µM; in series [7] it was 20.4 ± 1.51 µM. Moreover, the “cytotoxic activity against the three cancer cell lines (in words)” value in series [8] (MCF-7, SMMC-7721, HeLa) is recorded as “moderate cytotoxic activity”.
